# Assay results published in BindingDB's records for patent US11866405 (Astrazeneca, 2024).
# Target: T1, Interleukin-1 receptor-associated kinase 4 (Homo sapiens, UniProt Q9NWZ3)
# T1 sequence (Q9NWZ3 whole entry): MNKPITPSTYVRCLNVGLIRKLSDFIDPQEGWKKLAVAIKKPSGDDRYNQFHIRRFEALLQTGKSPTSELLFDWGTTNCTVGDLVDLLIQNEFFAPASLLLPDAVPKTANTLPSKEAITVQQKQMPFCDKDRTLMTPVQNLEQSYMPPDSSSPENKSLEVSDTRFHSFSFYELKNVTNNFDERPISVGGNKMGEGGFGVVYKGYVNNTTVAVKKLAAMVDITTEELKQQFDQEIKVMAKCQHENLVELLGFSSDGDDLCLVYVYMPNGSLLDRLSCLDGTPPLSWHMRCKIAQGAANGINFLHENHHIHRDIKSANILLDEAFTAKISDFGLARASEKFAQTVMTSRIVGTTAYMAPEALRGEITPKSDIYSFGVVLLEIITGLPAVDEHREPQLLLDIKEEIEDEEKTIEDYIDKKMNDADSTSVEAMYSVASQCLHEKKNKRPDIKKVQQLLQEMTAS
# Assay: Potency of IRAK4 Inhibitor Compounds in IRAK4 Enzyme Assay
# Protocol: The inhibitory activity of compounds against IRAK4 were determined in an enzymatic assay using mass spectrometry readout. Ten point half-log compound concentration response curves, with a top concentration of 1 μM or 10 μM, were generated from 10 mM stocks of compound solubilized in DMSO using an Echo 655 (Labcyte Inc) and added to 384 well assay plates (Greiner #781280). To the assay plates, 10 μL of human recombinant IRAK4 protein (Life Technologies #PV4002) diluted to a final concentration of 0.2 nM in assay buffer (50 mM Tris-HCl pH 7.4, 10 mM MgCl, 5 mM glutathione, 0.01% BSA, 3 mM ATP) was added. The enzyme was incubated with the compounds at room temperature for 15 minutes before a peptide substrate ([…], Innovagen custom synthesis, 10 mM in DMSO) was added to each well to a final concentration of 10 μM using an Echo 655 (Labcyte Inc). After two hours at room temperature, the reaction was stopped with 90 μL of 0.4% formic acid (Merck #33015). The unphosphorylated and phosphorylated peptide were measured by LC-MS/MS on a Waters TQ-S mass spectrometer. Peaks were integrated using the TargetLynx software and the ratios between phosphorylated and unphosphorylated peptides were calculated.
row,SMILES,IC50
1,"COc1cc2nn([C@H]3CCC[C@H](O)[C@@H]3C)cc2cc1C(=O)Nc1cnc2cccnn12 (relative stereo) [US11866405, Example 106]",0.6 nM
2,"COc1cc2nn([C@H]3CC[C@H](O)C[C@@H]3C)cc2cc1C(=O)Nc1cnn2cccnc12 [US11866405, Example 40]",6.3 nM
3,"COc1cc2nn([C@H]3CC[C@H](N(C)C(=O)[C@H](C)O)CC3)cc2cc1C(=O)Nc1cnc2cccnn12 [US11866405, Example 94]",0.3 nM

# Further molecules by falling IC50, results first:
row,IC50,SMILES
1,1.4 nM,"C[C@H]1C[C@@H](O)CC[C@@H]1n1cc2cc(C(=O)Nc3cnn4cccnc34)c(OC3CC3)cc2n1 [US11866405, Example 45]"
2,0.8 nM,"COc1cc2nn([C@H]3CC[C@H](N(C)C(=O)[C@@H]4CC[C@H](O)C4)CC3)cc2cc1C(=O)Nc1cnn2cccnc12 (relative stereo) [US11866405, Example 115]"
3,0.7 nM,"COc1cc2nn([C@@H]3CC[C@]4(CCC(=O)N4C)C[C@H]3C)cc2cc1C(=O)Nc1cnc2cccnn12 (relative stereo; form 2) [US11866405, Example 122]"
4,0.6 nM,"C[C@@]1(O)CCC[C@H](n2cc3cc(C(=O)Nc4cnn5cccnc45)c(OC4CC4)cc3n2)C1 (relative stereo) [US11866405, Example 54]"
